Converted amounts (≈) assume the structure as drawn.
Key:
Type in all cases: cell-based
Proteus vulgaris 1017 [1] = test: MIC, plate test (Table 1); conditions: 37°C, 24 hours, read-out: Minimum inhibitory concentration (MIC)
Description: (§1) The minimum inhibitory concentration (MIC) was determined in the plate test on a complete nutrient base of the following composition: 10 g of proteose-peptone, 10 g of veal infusion, 2 g of dextrose, 3 g of sodium chloride, 2 g of disodium phosphate, 1 g of sodium acetate, 0.01 g of adenine sulphate, 0.01 g of guanine hydrochloride, 0.01 g of uracil, 0.01 g. of xantin, 12 g of agar-agar and 1 liter of water.
(§2) The incubation temperature was 37°C and the incubation time was 24 hours.

Klebsiella 8085 = test: MIC, plate test (Table 1); conditions: 37°C, 24 hours, read-out: Minimum inhibitory concentration (MIC)
Description: as §1, §2

Streptococcus pyogenes = test: MIC, plate test (Table 1); conditions: with serum, 37°C, 24 hours, read-out: Minimum inhibitory concentration (MIC)
Description: as §1, §2

Escherichia coli C165 = test: MIC, plate test (Table 1); conditions: 37°C, 24 hours, read-out: Minimum inhibitory concentration (MIC)
Description: as §1, §2

Salmonella species [2] = test: MIC, plate test (Table 1); conditions: 37°C, 24 hours, read-out: Minimum inhibitory concentration (MIC)
Description: as §1, §2

Klebsiella 63 = test: MIC, plate test (Table 1); conditions: 37°C, 24 hours, read-out: Minimum inhibitory concentration (MIC)
Description: as §1, §2

Pseudomonas aeruginosa B [3] = test: MIC, plate test (Table 1); conditions: 37°C, 24 hours, read-out: Minimum inhibitory concentration (MIC)
Description: as §1, §2

Pseudomonas aeruginosa w [4] = test: MIC, plate test (Table 1); conditions: 37°C, 24 hours, read-out: Minimum inhibitory concentration (MIC)
Description: as §1, §2

Escherichia coli A261 = test: MIC, plate test (Table 1); conditions: 37°C, 24 hours, read-out: Minimum inhibitory concentration (MIC)
Description: as §1, §2

[5] = test system: Staphylococcus aureus 133; test: MIC, plate test (Table 1); conditions: 37°C, 24 hours, read-out: Minimum inhibitory concentration (MIC)
Description: as §1, §2

Mycoplasma gallisepticum = test: MIC, series dilution test, PPLO-medium (Table 1); conditions: Mycoplasmoides gallisepticum, 37°C, 18, 24 and 48 hours, read-out: Minimum inhibitory concentration (MIC)
Description: (§3) The mycoplasmae were tested in the series dilution test (PPLO-medium) at 37°C, with observations after 18, 24 and 48 hours.

Mycoplasma bovirhinis = test: MIC, series dilution test, PPLO-medium (Table 1); conditions: 37°C, 18, 24 and 48 hours, read-out: Minimum inhibitory concentration (MIC)
Description: as §3

Mycoplasma granularum = test: MIC, series dilution test, PPLO-medium (Table 1); conditions: Acholeplasma granularum, 37°C, 18, 24 and 48 hours, read-out: Minimum inhibitory concentration (MIC)
Description: as §3

[6] = test system: Mycobacterium tuberculosis; test: MIC, series dilution test, Jenssen egg medium; conditions: 37°C, read-out: minimum inhibitory concentration
Description: The compounds of Examples 12 and 13 show minimum inhibitory concentrations of 32 γ/ml of nutrient medium in the series dilution test, Jenssen egg medium, 37°C, against Mycobacterium tuberculosis.

Proteus vulgaris 1017 [7] = test: Turbidity test in Mueller-Hinton nutrient solution; conditions: 100 γ/ml, 24 hours, 37°C
Shigella species = test: Turbidity test in Mueller-Hinton nutrient solution; conditions: 100 γ/ml, 24 hours, 37°C
Description: (§4) 100 γ/ml of the compounds according to the invention are dissolved in Mueller-Hinton nutrient solution, with addition of 0.1% of glucose. The nutrient solution contains […] microbes per ml. The mixture is incubated in glass test tubes for 24 hours at 37°C and after this time the degree of turbidity is determined.

Salmonella species [8] = test: Turbidity test in Mueller-Hinton nutrient solution; conditions: 100 γ/ml, 24 hours, 37°C
Description: as §4

Borrelia species = test: Turbidity test in Mueller-Hinton nutrient solution; conditions: 100 γ/ml, 24 hours, 37°C
[9] = test system: Proteus indole-negative, species; test: Turbidity test in Mueller-Hinton nutrient solution; conditions: 100 γ/ml, 24 hours, 37°C
[10] = test system: Aeromonas hydrophila species; test: Turbidity test in Mueller-Hinton nutrient solution; conditions: 100 γ/ml, 24 hours, 37°C
Brucella species = conditions: 100 γ/ml, 24 hours, 37°C
[11] = test system: Neisseria catarrhalis species; test: Turbidity test in Mueller-Hinton nutrient solution; conditions: 100 γ/ml, 24 hours, 37°C
[12] = test system: Staphylococcus aureus 133; test: Turbidity test in Mueller-Hinton nutrient solution; conditions: 100 γ/ml, 24 hours, 37°C
[13] = test system: Diplococcus pneumoniae species; test: Turbidity test in Mueller-Hinton nutrient solution; conditions: 100 γ/ml, 24 hours, 37°C
[14] = test system: Corynebacterium diphtheriae gravis; test: Turbidity test in Mueller-Hinton nutrient solution; conditions: 100 γ/ml, 24 hours, 37°C
Clostridium tetani = conditions: 100 γ/ml, 24 hours, 37°C
Escherichia coli 14 = test: Turbidity test in Mueller-Hinton nutrient solution; conditions: 100 γ/ml, 24 hours, 37°C
Streptococcus pyogenes W = test: Turbidity test in Mueller-Hinton nutrient solution; conditions: 100 γ/ml, 24 hours, 37°C
[15] = test system: Corynebacterium pyogenes M; test: Turbidity test in Mueller-Hinton nutrient solution; conditions: 100 γ/ml, 24 hours, 37°C
Escherichia coli C 165 = test: Turbidity test in Mueller-Hinton nutrient solution; conditions: 100 γ/ml, 24 hours, 37°C
[16] = test system: Proteus indole-positive, species; test: Turbidity test in Mueller-Hinton nutrient solution; conditions: 100 γ/ml, 24 hours, 37°C
Serratia species = test: Turbidity test in Mueller-Hinton nutrient solution; conditions: 100 γ/ml, 24 hours, 37°C
Pseudomonas aeruginosa B [17] = test: Turbidity test in Mueller-Hinton nutrient solution; conditions: 100 γ/ml, 24 hours, 37°C
[18] = test system: Pasteurella pseudotuberculosis; conditions: 100 γ/ml, 24 hours, 37°C
[19] = test system: Bordetella bronchiseptica; test: Turbidity test in Mueller-Hinton nutrient solution; conditions: 100 γ/ml, 24 hours, 37°C
Klebsiella K 10 = test: Turbidity test in Mueller-Hinton nutrient solution; conditions: 100 γ/ml, 24 hours, 37°C
Bacteroides species = test: Turbidity test in Mueller-Hinton nutrient solution; conditions: 100 γ/ml, 24 hours, 37°C
Clostridium botulinium = test system: Clostridium botulinium
Escherichia coli A 261 = test: Turbidity test in Mueller-Hinton nutrient solution; conditions: 100 γ/ml, 24 hours, 37°C
Enterococcus species = test: Turbidity test in Mueller-Hinton nutrient solution; conditions: 100 γ/ml, 24 hours, 37°C
Pseudomonas aeruginosa w [20] = test: Turbidity test in Mueller-Hinton nutrient solution; conditions: 100 γ/ml, 24 hours, 37°C
Enterobacter species = test: Turbidity test in Mueller-Hinton nutrient solution; conditions: 100 γ/ml, 24 hours, 37°C
[21] = test system: Haemophilus influenzae 281; test: Turbidity test in Mueller-Hinton nutrient solution; conditions: 100 γ/ml, 24 hours, 37°C
Lactobacillus species = test: Turbidity test in Mueller-Hinton nutrient solution; conditions: 100 γ/ml, 24 hours, 37°C
Klebsiella K 63 = test: Turbidity test in Mueller-Hinton nutrient solution; conditions: 100 γ/ml, 24 hours, 37°C

SMILES: CC(=O)Nc1n[n+]([O-])c2ccccc2[n+]1[O-] [Example 2, 3-(N-acetylamino)-benzo-1,2,4-triazine-1,4-di-N-oxide]
- MIC (Proteus vulgaris 1017 [1]): < 0.5 µg/mL
- MIC (Klebsiella 8085): < 0.5 µg/mL
- MIC (Streptococcus pyogenes): 1 µg/mL (≈ 4.54 µM)
- MIC (Escherichia coli C165): < 0.5 µg/mL
- MIC (Salmonella species [2]): 1 µg/mL (≈ 4.54 µM)
- MIC (Klebsiella 63): < 0.5 µg/mL
- MIC (Pseudomonas aeruginosa B [3]): 4 µg/mL (≈ 18.2 µM)
- MIC (Pseudomonas aeruginosa w [4]): 8 µg/mL (≈ 36.3 µM)
- MIC (Escherichia coli A261): < 0.5 µg/mL
- MIC [5]: < 0.5 µg/mL
- MIC (Mycoplasma gallisepticum): < 0.125 µg/mL
- MIC (Mycoplasma bovirhinis): < 0.125 µg/mL
- MIC (Mycoplasma granularum): < 0.125 µg/mL

SMILES: CC(=O)CC(=O)Nc1n[n+]([O-])c2ccccc2[n+]1[O-] [Example 4, 3-(N-acetoacetylamino)-benzo-1,2,4-triazine-1,4-di-N-oxide]
- MIC (Proteus vulgaris 1017 [1]): 8 µg/mL (≈ 30.5 µM)
- MIC (Klebsiella 8085): 4 µg/mL (≈ 15.3 µM)
- MIC (Streptococcus pyogenes): 8 µg/mL (≈ 30.5 µM)
- MIC (Escherichia coli C165): 8 µg/mL (≈ 30.5 µM)
- MIC (Salmonella species [2]): 8 µg/mL (≈ 30.5 µM)
- MIC (Klebsiella 63): 128 µg/mL (≈ 488 µM)
- MIC (Pseudomonas aeruginosa B [3]): 128 µg/mL (≈ 488 µM)
- MIC (Pseudomonas aeruginosa w [4]): 128 µg/mL (≈ 488 µM)
- MIC (Escherichia coli A261): 8 µg/mL (≈ 30.5 µM)
- MIC [5]: 8 µg/mL (≈ 30.5 µM)
- MIC [6]: 32 µg/mL (≈ 122 µM)

SMILES: CCCCCCCCCCCCCCCCCC(=O)Nc1n[n+]([O-])c2ccccc2[n+]1[O-] [Example 6]
- MIC (Proteus vulgaris 1017 [1]): 128 µg/mL (≈ 288 µM)
- MIC (Klebsiella 8085): 8 µg/mL (≈ 18 µM)
- MIC (Streptococcus pyogenes): 128 µg/mL (≈ 288 µM)
- MIC (Escherichia coli C165): 128 µg/mL (≈ 288 µM)
- MIC (Salmonella species [2]): 128 µg/mL (≈ 288 µM)
- MIC (Klebsiella 63): 128 µg/mL (≈ 288 µM)
- MIC (Pseudomonas aeruginosa B [3]): 128 µg/mL (≈ 288 µM)
- MIC (Pseudomonas aeruginosa w [4]): 128 µg/mL (≈ 288 µM)
- MIC (Escherichia coli A261): 128 µg/mL (≈ 288 µM)
- MIC [5]: 128 µg/mL (≈ 288 µM)
- MIC [6]: 32 µg/mL (≈ 72 µM)

SMILES: CCC(=O)Nc1n[n+]([O-])c2ccccc2[n+]1[O-] [Example 3, 3-(N-propionylamino)-benzo-1,2,4-triazine-1,4-di-N-oxide]
- MIC (Proteus vulgaris 1017 [1]): 1 µg/mL (≈ 4.27 µM)
- MIC (Klebsiella 8085): 1 µg/mL (≈ 4.27 µM)
- MIC (Streptococcus pyogenes): 128 µg/mL (≈ 547 µM)
- MIC (Escherichia coli C165): 4 µg/mL (≈ 17.1 µM)
- MIC (Salmonella species [2]): 4 µg/mL (≈ 17.1 µM)
- MIC (Klebsiella 63): 4 µg/mL (≈ 17.1 µM)
- MIC (Pseudomonas aeruginosa B [3]): 128 µg/mL (≈ 547 µM)
- MIC (Pseudomonas aeruginosa w [4]): 128 µg/mL (≈ 547 µM)
- MIC (Escherichia coli A261): 4 µg/mL (≈ 17.1 µM)
- MIC [5]: 1 µg/mL (≈ 4.27 µM)
- MIC (Mycoplasma gallisepticum): < 0.125 µg/mL
- MIC (Mycoplasma bovirhinis): < 0.125 µg/mL
- MIC (Mycoplasma granularum): < 0.125 µg/mL

SMILES: O=C(NCCO)Nc1n[n+]([O-])c2ccccc2[n+]1[O-] [Example 14, 1'-[1,4-dioxo-benzo-1,2,4-triazin-3-yl]-3'-[β-hydroxy-ethyl]-urea]
- turbidity after incubation (Proteus vulgaris 1017 [7]): remained free of turbidity
- turbidity after incubation (Shigella species): remained free of turbidity
- turbidity after incubation (Salmonella species [8]): remained free of turbidity
- turbidity after incubation (Borrelia species): remained free of turbidity
- turbidity after incubation [9]: remained free of turbidity
- turbidity after incubation [10]: remained free of turbidity
- turbidity after incubation (Brucella species): remained free of turbidity
- turbidity after incubation [11]: remained free of turbidity
- turbidity after incubation [12]: remained free of turbidity
- turbidity after incubation [13]: remained free of turbidity
- turbidity after incubation [14]: remained free of turbidity
- turbidity after incubation (Clostridium tetani): remained free of turbidity
- turbidity after incubation (Escherichia coli 14): remained free of turbidity
- turbidity after incubation (Streptococcus pyogenes W): remained free of turbidity
- turbidity after incubation [15]: remained free of turbidity
- turbidity after incubation (Escherichia coli C 165): remained free of turbidity
- turbidity after incubation [16]: remained free of turbidity
- turbidity after incubation (Serratia species): remained free of turbidity
- turbidity after incubation (Pseudomonas aeruginosa B [17]): remained free of turbidity
- turbidity after incubation [18]: remained free of turbidity
- turbidity after incubation [19]: remained free of turbidity
- turbidity after incubation (Klebsiella K 10): remained free of turbidity
- turbidity after incubation (Bacteroides species): remained free of turbidity
- turbidity after incubation (Clostridium botulinium): remained free of turbidity
- turbidity after incubation (Escherichia coli A 261): remained free of turbidity
- turbidity after incubation (Enterococcus species): remained free of turbidity
- turbidity after incubation (Pseudomonas aeruginosa w [20]): remained free of turbidity
- turbidity after incubation (Enterobacter species): remained free of turbidity
- turbidity after incubation [21]: remained free of turbidity
- turbidity after incubation (Lactobacillus species): remained free of turbidity
- turbidity after incubation (Klebsiella K 63): remained free of turbidity

SMILES: CNC(=O)Nc1n[n+]([O-])c2ccccc2[n+]1[O-] [Example 7, 1'-methyl-3'-[1,4-dioxo-benzo-1,2,4-triazin-3-yl]-urea]
- MIC (Proteus vulgaris 1017 [1]): 1 µg/mL (≈ 4.25 µM)
- MIC (Klebsiella 8085): 1 µg/mL (≈ 4.25 µM)
- MIC (Streptococcus pyogenes): 1 µg/mL (≈ 4.25 µM)
- MIC (Escherichia coli C165): 4 µg/mL (≈ 17 µM)
- MIC (Salmonella species [2]): 4 µg/mL (≈ 17 µM)
- MIC (Klebsiella 63): 8 µg/mL (≈ 34 µM)
- MIC (Pseudomonas aeruginosa B [3]): 128 µg/mL (≈ 544 µM)
- MIC (Pseudomonas aeruginosa w [4]): 128 µg/mL (≈ 544 µM)
- MIC (Escherichia coli A261): 4 µg/mL (≈ 17 µM)
- MIC [5]: 1 µg/mL (≈ 4.25 µM)

Source: patent US3957779A, “Benzo-1,2,4-triazines” (Bayer Aktiengesellschaft, priority 1972, dated 1976)
